Reference: ChEMBL document CHEMBL4145566, “Isoindolinones, Phthalides, and a Naphthoquinone from the Fruiting Body of Daldinia concentrica” (J Nat Prod, 2018)

System: HUVEC
Assay: Antiangiogenic activity in HUVEC assessed as inhibition of cell proliferation after 18 hrs by WST-8 reagent based assay
Assay type: functional
Conditions: Homo sapiens

Row | SMILES | IC50 [µM]
1 | C=C1[C@@H](C)[C@H]2[C@H](Cc3ccccc3)NC(=O)[C@]23OC(=O)/C=C/[C@@H](O)CCC[C@@H](C)C/C=C/[C@H]3[C@@H]1O | 0.2
2 | COc1cccc2c1C(=O)C(=O)C=C2c1ccc(O)c2c(OC)cccc12 | 7.5
